Literature values in patent US6534094B2, “Manufacturing process of microcapsules for sustained release of water soluble peptides” (Eriochem S.A., priority 2000, dated 2003).

Conditions: superactive agonist of LH-RH; fold of the biological activity of LH-RH

Structure (SMILES): CCNC(=O)[C@@H]1CCCN1C(=O)[C@H](CCCNC(=N)N)NC(=O)[C@H](CC(C)C)NC(=O)[C@@H](CC(C)C)NC(=O)[C@H](Cc1ccc(O)cc1)NC(=O)[C@H](CO)NC(=O)[C@H](Cc1c[nH]c2ccccc12)NC(=O)[C@H](Cc1c[nH]cn1)NC(=O)[C@@H]1CCC(=O)N1 [leuprolide acetate]
- biological activity relative to LH-RH: approximately 10 times
